Results published in ChEMBL document CHEMBL4715821, “Discovery of 4-ethoxy-7H-pyrrolo[2,3-d]pyrimidin-2-amines as potent, selective and orally bioavailable LRRK2 inhibitors” (Bioorg Med Chem Lett, 2018).

What was measured:
[1] = biological target: Serine/threonine-protein kinase PAK 2 (Homo sapiens) (UniProt Q13177); assay: Inhibition of wild-type human partial length PAK2 (P151 to R525 residues) expressed in bacterial expression system assessed as residual activity at 1 uM by Kinomescan method relative to control
Chain of Serine/threonine-protein kinase PAK 2 (Homo sapiens) (Q13177 whole entry, the tested form may be a part): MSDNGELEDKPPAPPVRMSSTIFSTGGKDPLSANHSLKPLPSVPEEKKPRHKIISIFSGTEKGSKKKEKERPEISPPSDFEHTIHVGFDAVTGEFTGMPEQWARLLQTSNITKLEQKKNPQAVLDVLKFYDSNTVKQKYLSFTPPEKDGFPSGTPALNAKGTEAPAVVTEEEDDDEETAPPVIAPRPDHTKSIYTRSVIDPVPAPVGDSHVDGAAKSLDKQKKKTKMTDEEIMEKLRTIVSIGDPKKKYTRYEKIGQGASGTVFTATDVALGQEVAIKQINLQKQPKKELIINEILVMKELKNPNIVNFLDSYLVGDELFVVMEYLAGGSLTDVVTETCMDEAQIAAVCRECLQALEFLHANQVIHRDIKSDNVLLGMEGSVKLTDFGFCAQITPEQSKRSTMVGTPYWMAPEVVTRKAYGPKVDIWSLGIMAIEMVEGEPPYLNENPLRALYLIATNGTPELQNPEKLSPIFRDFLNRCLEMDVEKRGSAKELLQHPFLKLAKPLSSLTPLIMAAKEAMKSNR

[2] = biological target: MAP kinase-interacting serine/threonine-protein kinase 1 (Homo sapiens) (UniProt Q9BUB5); assay: Inhibition of MNK1 (unknown origin) assessed as residual activity at 1 uM by Kinomescan method relative to control
[3] = biological target: Mitogen-activated protein kinase kinase kinase 10 (Homo sapiens) (UniProt Q02779); assay: Inhibition of wild-type human partial length MLK2 (V52 to W380 residues) expressed in bacterial expression system assessed as residual activity at 1 uM by Kinomescan method relative to control
[4] = biological target: Mitogen-activated protein kinase kinase kinase 3 (Homo sapiens) (UniProt Q99759); assay: Inhibition of MEKK3 (unknown origin) assessed as residual activity at 1 uM by Kinomescan method relative to control
[5] = biological target: BDNF/NT-3 growth factors receptor (Homo sapiens) (UniProt Q16620); assay: Inhibition of wild-type human partial length TRKB (Q547 to G838 residues) expressed in mammalian expression system assessed as residual activity at 1 uM by Kinomescan method relative to control
Chain of BDNF/NT-3 growth factors receptor (Homo sapiens) (Q16620 32-822 limits assumed): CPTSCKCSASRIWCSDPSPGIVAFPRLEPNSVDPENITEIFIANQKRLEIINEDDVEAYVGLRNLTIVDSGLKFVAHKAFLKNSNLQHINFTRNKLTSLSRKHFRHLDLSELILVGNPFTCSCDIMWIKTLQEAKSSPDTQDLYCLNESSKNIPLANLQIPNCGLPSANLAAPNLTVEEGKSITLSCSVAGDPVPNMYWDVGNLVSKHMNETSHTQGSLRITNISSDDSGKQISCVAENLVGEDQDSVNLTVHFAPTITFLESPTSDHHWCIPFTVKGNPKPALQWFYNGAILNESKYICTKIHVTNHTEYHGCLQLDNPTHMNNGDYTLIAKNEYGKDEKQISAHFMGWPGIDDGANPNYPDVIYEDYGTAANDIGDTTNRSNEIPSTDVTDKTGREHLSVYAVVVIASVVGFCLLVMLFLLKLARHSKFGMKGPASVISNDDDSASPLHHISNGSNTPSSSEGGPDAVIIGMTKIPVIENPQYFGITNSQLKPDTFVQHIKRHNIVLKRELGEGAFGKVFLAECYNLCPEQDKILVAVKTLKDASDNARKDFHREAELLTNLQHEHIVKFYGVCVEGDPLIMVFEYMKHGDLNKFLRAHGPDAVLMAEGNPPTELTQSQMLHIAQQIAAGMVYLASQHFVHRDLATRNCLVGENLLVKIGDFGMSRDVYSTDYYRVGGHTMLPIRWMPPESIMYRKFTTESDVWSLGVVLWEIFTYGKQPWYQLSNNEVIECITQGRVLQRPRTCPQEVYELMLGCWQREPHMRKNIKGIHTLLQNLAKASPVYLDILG

[6] = biological target: cGMP-dependent protein kinase 1 (Homo sapiens) (UniProt Q13976); assay: Inhibition of PKG1a (unknown origin) assessed as residual activity at 1 uM by Kinomescan method relative to control
Chain of cGMP-dependent protein kinase 1 (Homo sapiens) (Q13976 whole entry, the tested form may be a part): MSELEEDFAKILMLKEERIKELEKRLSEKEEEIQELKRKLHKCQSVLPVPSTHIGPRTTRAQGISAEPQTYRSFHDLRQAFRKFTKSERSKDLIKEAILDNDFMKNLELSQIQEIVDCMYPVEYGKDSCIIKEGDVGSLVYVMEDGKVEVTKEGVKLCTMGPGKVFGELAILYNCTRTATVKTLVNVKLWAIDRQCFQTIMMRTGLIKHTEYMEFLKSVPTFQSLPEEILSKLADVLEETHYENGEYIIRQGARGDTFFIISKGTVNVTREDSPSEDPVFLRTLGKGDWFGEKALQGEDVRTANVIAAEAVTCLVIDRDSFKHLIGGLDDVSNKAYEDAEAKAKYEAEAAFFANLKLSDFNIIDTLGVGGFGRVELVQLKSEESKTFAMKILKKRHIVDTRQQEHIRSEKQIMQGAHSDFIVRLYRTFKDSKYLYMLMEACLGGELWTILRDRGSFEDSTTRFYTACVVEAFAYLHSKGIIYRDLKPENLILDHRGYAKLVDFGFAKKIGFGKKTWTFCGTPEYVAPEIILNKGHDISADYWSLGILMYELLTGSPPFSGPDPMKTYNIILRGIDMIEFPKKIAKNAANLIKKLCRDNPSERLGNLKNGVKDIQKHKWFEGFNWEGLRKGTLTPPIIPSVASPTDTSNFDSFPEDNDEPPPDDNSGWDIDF

[7] = biological target: Ephrin type-A receptor 8 (Homo sapiens) (UniProt P29322); assay: Inhibition of human wild type partial length EPHA8 (Q608 to C920 residues) expressed in bacterial expression system assessed as residual activity at 1 uM by Kinomescan method relative to control
[8] = biological target: LIM domain kinase 1 (Homo sapiens) (UniProt P53667); assay: Inhibition of wild-type human full length LIMK1 (M1 to D647 residues) expressed in bacterial expression system assessed as residual activity at 1 uM by Kinomescan method relative to control
[9] = biological target: SRSF protein kinase 1 (Homo sapiens) (UniProt Q96SB4); assay: Inhibition of wild-type human full length SRPK1 (M1 to S655 residues) expressed in bacterial expression system assessed as residual activity at 1 uM by Kinomescan method relative to control
[10] = biological target: Serine/threonine-protein kinase WNK1 (Homo sapiens) (UniProt Q9H4A3); assay: Inhibition of wild-type human partial length WNK1 (Q194 to A490 residues) expressed in mammalian expression system assessed as residual activity at 1 uM by Kinomescan method relative to control
[11] = biological target: Serine/threonine-protein kinase Chk1 (Homo sapiens) (UniProt O14757); assay: Inhibition of CHK1 (unknown origin) assessed as residual activity at 1 uM by Kinomescan method relative to control
[12] = biological target: Receptor tyrosine-protein kinase erbB-4 (Homo sapiens) (UniProt Q15303); assay: Inhibition of wild-type human partial length ERBB4 (L690 to K994 residues) expressed in bacterial expression system assessed as residual activity at 1 uM by Kinomescan method relative to control
[13] = biological target: Dual specificity protein kinase CLK1 (Homo sapiens) (UniProt P49759); assay: Inhibition of wild-type human full length CLK1 (M1 to I484 residues) expressed in bacterial expression system assessed as residual activity at 1 uM by Kinomescan method relative to control
[14] = biological target: Serine/threonine-protein kinase D2 (Homo sapiens) (UniProt Q9BZL6); assay: Inhibition of wild-type human partial length PRKD2 (A519 to E838 residues) expressed in bacterial expression system assessed as residual activity at 1 uM by Kinomescan method relative to control
[15] = biological target: Serine/threonine-protein kinase 26 (Homo sapiens) (UniProt Q9P289); assay: Inhibition of wild-type human full length MST4 (M1 to P416 residues) expressed in mammalian expression system assessed as residual activity at 1 uM by Kinomescan method relative to control
[16] = biological target: Casein kinase I isoform gamma-3 (Homo sapiens) (UniProt Q9Y6M4); assay: Inhibition of CK1g3 (unknown origin) assessed as residual activity at 1 uM by Kinomescan method relative to control
[17] = biological target: Tyrosine-protein kinase Mer (Homo sapiens) (UniProt Q12866); assay: Inhibition of wild-type human partial length c-MER (R557 to L884 residues) expressed in bacterial expression system assessed as residual activity at 1 uM by Kinomescan method relative to control
[18] = biological target: Rho-associated protein kinase 1 (Homo sapiens) (UniProt Q13464); assay: Inhibition of wild-type human partial length ROCK1 (M1 to R415 residues) expressed in mammalian expression system assessed as residual activity at 1 uM by Kinomescan method relative to control
[19] = biological target: Leucine-rich repeat serine/threonine-protein kinase 2 (Homo sapiens, UniProt Q5S007); assay: Inhibition of wild-type human partial length LRRK2 (H970 to E2527 residues) expressed in mammalian expression system assessed as residual activity at 1 uM by Kinomescan method relative to control
Chain of Leucine-rich repeat serine/threonine-protein kinase 2 (Q5S007 whole entry, the tested form may be a part): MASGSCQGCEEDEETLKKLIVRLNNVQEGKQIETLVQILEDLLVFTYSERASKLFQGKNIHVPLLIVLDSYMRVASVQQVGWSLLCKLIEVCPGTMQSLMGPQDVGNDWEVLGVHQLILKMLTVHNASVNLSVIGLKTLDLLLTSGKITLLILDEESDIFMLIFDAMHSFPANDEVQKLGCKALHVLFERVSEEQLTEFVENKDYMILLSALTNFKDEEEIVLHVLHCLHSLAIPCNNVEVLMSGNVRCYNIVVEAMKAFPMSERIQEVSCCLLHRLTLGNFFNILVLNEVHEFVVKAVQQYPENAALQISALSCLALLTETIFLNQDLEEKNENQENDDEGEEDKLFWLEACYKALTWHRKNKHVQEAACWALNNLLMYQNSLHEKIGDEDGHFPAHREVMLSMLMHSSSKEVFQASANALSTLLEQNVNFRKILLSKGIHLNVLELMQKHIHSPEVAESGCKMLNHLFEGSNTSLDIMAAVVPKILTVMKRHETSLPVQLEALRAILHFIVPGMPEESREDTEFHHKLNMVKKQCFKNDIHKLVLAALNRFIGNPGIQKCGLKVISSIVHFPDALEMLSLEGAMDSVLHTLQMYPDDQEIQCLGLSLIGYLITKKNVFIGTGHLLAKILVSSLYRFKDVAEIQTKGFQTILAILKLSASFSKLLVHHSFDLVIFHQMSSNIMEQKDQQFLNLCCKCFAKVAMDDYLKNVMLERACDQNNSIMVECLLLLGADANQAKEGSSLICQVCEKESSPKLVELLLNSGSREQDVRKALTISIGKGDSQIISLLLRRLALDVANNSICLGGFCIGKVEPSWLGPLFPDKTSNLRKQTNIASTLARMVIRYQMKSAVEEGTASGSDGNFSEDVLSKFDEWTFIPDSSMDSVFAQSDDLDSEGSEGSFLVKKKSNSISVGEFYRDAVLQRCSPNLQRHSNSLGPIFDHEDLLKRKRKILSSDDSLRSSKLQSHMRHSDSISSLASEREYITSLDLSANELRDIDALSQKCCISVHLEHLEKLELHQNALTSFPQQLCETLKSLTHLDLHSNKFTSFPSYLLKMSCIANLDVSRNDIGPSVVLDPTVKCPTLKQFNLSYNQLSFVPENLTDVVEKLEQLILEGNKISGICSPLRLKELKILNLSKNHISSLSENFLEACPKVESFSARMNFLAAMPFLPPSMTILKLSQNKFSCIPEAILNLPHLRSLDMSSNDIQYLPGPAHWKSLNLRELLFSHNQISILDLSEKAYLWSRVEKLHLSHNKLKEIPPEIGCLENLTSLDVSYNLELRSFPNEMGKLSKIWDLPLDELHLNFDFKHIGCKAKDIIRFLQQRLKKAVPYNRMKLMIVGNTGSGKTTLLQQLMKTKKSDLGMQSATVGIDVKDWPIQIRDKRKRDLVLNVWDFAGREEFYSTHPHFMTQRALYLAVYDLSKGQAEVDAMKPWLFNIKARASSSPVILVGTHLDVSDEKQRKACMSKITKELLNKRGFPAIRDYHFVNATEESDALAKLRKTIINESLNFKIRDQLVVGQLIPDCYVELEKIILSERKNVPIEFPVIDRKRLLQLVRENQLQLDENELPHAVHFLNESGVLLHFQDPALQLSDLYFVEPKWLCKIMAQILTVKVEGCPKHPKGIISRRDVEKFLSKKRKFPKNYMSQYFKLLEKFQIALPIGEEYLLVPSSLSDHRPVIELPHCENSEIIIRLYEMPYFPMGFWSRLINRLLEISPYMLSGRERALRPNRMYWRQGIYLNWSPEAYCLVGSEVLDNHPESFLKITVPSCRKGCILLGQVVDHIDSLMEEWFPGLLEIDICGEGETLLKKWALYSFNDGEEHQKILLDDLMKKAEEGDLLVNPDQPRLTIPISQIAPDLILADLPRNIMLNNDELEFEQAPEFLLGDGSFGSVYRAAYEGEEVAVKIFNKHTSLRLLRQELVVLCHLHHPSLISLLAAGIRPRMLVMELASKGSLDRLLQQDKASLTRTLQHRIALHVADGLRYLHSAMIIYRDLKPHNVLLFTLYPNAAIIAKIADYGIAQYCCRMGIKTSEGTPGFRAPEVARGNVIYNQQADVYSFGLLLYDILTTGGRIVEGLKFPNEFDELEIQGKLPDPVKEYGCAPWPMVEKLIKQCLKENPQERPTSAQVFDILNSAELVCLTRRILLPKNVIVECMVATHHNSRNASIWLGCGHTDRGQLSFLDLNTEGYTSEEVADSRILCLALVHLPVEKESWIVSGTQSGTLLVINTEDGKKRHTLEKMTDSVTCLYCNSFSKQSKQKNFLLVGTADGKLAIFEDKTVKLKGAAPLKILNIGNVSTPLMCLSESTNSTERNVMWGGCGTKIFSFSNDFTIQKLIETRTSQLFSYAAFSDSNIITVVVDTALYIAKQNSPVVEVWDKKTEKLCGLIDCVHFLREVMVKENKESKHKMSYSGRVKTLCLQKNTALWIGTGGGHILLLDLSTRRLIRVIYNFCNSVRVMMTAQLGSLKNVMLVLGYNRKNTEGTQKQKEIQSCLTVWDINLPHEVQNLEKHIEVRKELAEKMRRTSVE

[20] = biological target: TRAF2 and NCK-interacting protein kinase (Homo sapiens) (UniProt Q9UKE5); assay: Inhibition of wild-type human partial length TNIK (D4 to K311 residues) expressed in bacterial expression system assessed as residual activity at 1 uM by Kinomescan method relative to control
[21] = biological target: Homeodomain-interacting protein kinase 2 (Homo sapiens) (UniProt Q9H2X6); assay: Inhibition of wild-type human partial length HIPK2 (M153 to S564 residues) expressed in mammalian expression system assessed as residual activity at 1 uM by Kinomescan method relative to control
[22] = biological target: Serine/threonine-protein kinase TAO1 (Homo sapiens) (UniProt Q7L7X3); assay: Inhibition of wild-type human partial length TAOK1 (M1 to A320 residues) expressed in mammalian expression system assessed as residual activity at 1 uM by Kinomescan method relative to control
[23] = Artificial membrane permeability by PAMPA method; assay type: ADME; settings: read-out: permeability
[24] = biological target: Protein kinase C delta type (Homo sapiens) (UniProt Q05655); assay: Inhibition of PKCdelta (unknown origin) assessed as residual activity at 1 uM by Kinomescan method relative to control
[25] = In vivo inhibition of LRRK2 in Han-Wistar rat assessed as reduction in Ser935 phosphorylation in brain at 30 mg/kg, po by Western blot analysis; assay type: functional; design: scale not given: the % may be the effect or the level left
[26] = species on record: Homo sapiens; assay: Inhibition of wild-type human full length CDK9 (M1 to F372 residues)/cyclin T1 expressed in bacterial expression system assessed as residual activity at 1 uM by Kinomescan method relative to control
[27] = biological target: NUAK family SNF1-like kinase 1 (Homo sapiens) (UniProt O60285); assay: Inhibition of wild-type human partial length ARK5 (E25 to I332 residues) expressed in bacterial expression system assessed as residual activity at 1 uM by Kinomescan method relative to control
[28] = biological target: Tyrosine-protein kinase Lyn (Homo sapiens) (UniProt P07948); assay: Inhibition of wild-type human partial length LYN (C219 to Q511 residues) expressed in bacterial expression system assessed as residual activity at 1 uM by Kinomescan method relative to control
Chain of Tyrosine-protein kinase Lyn (Homo sapiens) (P07948 2-512 limits assumed): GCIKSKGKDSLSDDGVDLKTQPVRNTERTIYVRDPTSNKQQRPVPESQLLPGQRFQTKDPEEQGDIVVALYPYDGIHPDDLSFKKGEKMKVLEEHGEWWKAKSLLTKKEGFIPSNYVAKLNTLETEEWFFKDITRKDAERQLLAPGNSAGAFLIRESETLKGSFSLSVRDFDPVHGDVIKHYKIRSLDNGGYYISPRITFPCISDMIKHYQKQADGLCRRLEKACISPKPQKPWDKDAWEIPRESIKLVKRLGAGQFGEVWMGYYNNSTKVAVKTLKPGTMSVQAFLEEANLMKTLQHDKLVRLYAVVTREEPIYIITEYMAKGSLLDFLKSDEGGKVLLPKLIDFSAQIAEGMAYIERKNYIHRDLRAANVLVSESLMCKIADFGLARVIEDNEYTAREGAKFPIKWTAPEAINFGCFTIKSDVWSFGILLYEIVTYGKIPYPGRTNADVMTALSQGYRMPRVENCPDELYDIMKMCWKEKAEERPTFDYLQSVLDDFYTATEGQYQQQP

CCOc1nc(Nc2ccc(C(=O)N3CCOCC3)cc2OC)nc2[nH]ccc12 gave an Activity [1] of 95.3%, an Activity [2] of 98.7% and an Activity [3] of 100%. The Activity [4] was 97%, the Activity [5] was 102% and the Activity [6] was 92.5%. For the same molecule, the Activity [7] was 94.4%, the Activity [8] was 98% and the Activity [9] was 87.4%. It also gave an Activity [10] of 78.5%, an Activity [11] of 84.5% and an Activity [12] of 101%. For the same molecule, the Activity [13] was 37.4%, the Activity [14] was 62.1% and the Activity [15] was 88.4%. The Activity [16] was 92.3%, the Activity [17] was 97% and the Activity [18] was 94.2%. For the same molecule, the Activity [19] was 0.91%, the Activity [20] was 98.4% and the Activity [21] was 100%. It also gave an Activity [22] of 89.9%, a Papp [23] of 48 ×10⁻⁶ cm/s and an Activity [24] of 99.8%. For the same molecule, the Activity [25] was 50%, the Activity [26] was 91.6% and the Activity [27] was 47.6%. It also gave an Activity [28] of 99.7%.
